{"source": "patent US9426996B2", "about": "“Use of benzoxaboroles as volatile antimicrobial agents on meats, plants, or plant parts” (AgroFresh Inc., priority 2013, dated 2016)", "key": {"Escherichia coli": {"test_system": "Escherichia coli", "assay": "in vivo volatile bioassay on fresh beef", "experimental": "(§1) In order to assess the in vivo activity of volatile antimicrobial Compound A, a volatile bioassay is developed to evaluate the control of Escherichia coli and Salmonella enterica on fresh beef. The beef is washed to remove any natural inoculum by rinsing in warm water for 2 minutes. Two strips, single layer, are placed in a sterile 10.8-cup SnapWare airtight container (Model #109842).\n(§2) Each strip is inoculated on the surface by placing 20 μL of either E. coli or S. enterica cell suspensions that are adjusted to an optical density of 0.35 (600 nm), and further diluted 1/10. For determination of efficacy, Compound A powder is introduced into the container with a sublimation device (copper tube heated to 200° C. with fan flow at 0.5 liters per minute (L/min)) at a rate required to achieve a final headspace concentration of 100 mg/L. The containers and their contents are then incubated for 2 days at 21° C. After treatment, the beef is washed, and the wash is collected, serially diluted, plated on nutrient agar, and then incubated for an additional 24 hours at 37° C. Bacterial colonies are counted and expressed as colony forming units (CFU/mL), with the log reduction calculated relative to the control."}, "Salmonella enterica": {"test_system": "Salmonella enterica", "assay": "in vivo volatile bioassay on fresh beef", "settings": "S. enterica from beef; 100 mg/L headspace; 2 days at 21° C.", "experimental": "as §1, §2"}, "Botrytis cinerea [1]": {"test_system": "Botrytis cinerea", "assay": "in vivo sublimation bioassay on fruit, 10 mg/L (Example 22)", "settings": "10 mg/L sublimed, three day treatment plus three days at 21° C.", "experimental": "(§3) To assess the in vivo activity of volatile antimicrobial Compound A (FIG. 1) in fruit, a volatile bioassay is developed using apple, pear, orange, strawberry, grape and blueberry. Two apples, 2 oranges, 2 pears, 8 strawberries, 16 grapes or 30 blueberries (per replicate, in duplicate) are placed in a clamshell with the stem end facing up for all fruits except for strawberry (stem end facing downwards). A fresh wound is inoculated with 20 μL 1×10^6 per mL Penicillium expansum spore suspension (apple and pear), 20 μL 1×10^6 per mL Penicillium digitatum spore suspension (orange), and 20 μL (strawberry and grape) or 10 μL (blueberry) of 1×10^6 per mL Botrytis cinerea spore suspension. The clamshells are placed inside a 117 L Rubbermaid storage box (Cat #2244) with lids closed. Compound A, dissolved in acetone, is pipetted onto a cotton strip, where the acetone is allowed to evaporate for five minutes, and then introduced into the container by a sublimation device (copper tube heated to 200° C. with fan flow at 0.5 L/min) to achieve a final headspace concentration of 10 mg/L. The containers are then held for three days at 21° C. After treatment, fruits are held for an additional three days at 21° C., then evaluated for disease incidence (mm diameter of browning or water-soaked lesions) and pathogen sporulation (mm diameter) for apple, pear and orange, as well as Botrytis cinerea disease incidence (%) and severity (0 to 4) for strawberry, grape and blueberry, with results summarized in Table 21."}, "Penicillium digitatum [2]": {"test_system": "Penicillium digitatum", "assay": "in vivo sublimation bioassay on fruit, 10 mg/L (Example 22)", "settings": "Orange; 10 mg/L sublimed; three day treatment plus three days at 21° C.", "experimental": "as §3"}, "Penicillium expansum [3]": {"test_system": "Penicillium expansum", "assay": "in vivo sublimation bioassay on fruit, 10 mg/L (Example 22)", "settings": "10 mg/L sublimed, three day treatment plus three days at 21° C.", "experimental": "as §3"}, "Alternaria alternata": {"test_system": "Alternaria alternata", "assay": "combination treatment with 1-MCP on tomato", "format": "in vivo", "settings": "tomatoes", "experimental": "Each tomato fruit is wounded three times and inoculated with 1×10^6 spores/mL of Alternaria alternata and then placed in a 117 L Rubbermaid storage box (Cat #2244) with two small fans placed in opposite ends of the container. A 1000 ppb v/v 1-MCP treatment is applied (AgroFresh, Springhouse, Pa.) for 24 hours at 21° C. After completion of the 1-MCP treatment, the tomatoes are removed and placed in a 10.8-cup […] airtight container (Model #109842). […] The tomatoes are incubated for three days at 21° C., then evaluated for an additional three days at 21° C. for disease incidence and severity. Results listed in Table 29 show good activity against Alternaria alternata infection of tomato."}, "Botrytis cinerea [4]": {"test_system": "Botrytis cinerea", "assay": "in vivo sublimation bioassay on fruit, 1 mg/L (Example 31)", "settings": "for Incidence (%) / Severity (0-4): 1 mg/L sublimed, three day treatment plus three days at 21° C.", "experimental": "(§4) To assess the in vivo activity of volatile antimicrobial Compounds A and B (FIG. 1) in fruit, a volatile bioassay is developed using apple, pear, orange, strawberry, grape and blueberry.\n(§5) Two apples, 2 oranges, 2 pears, 8 strawberries, 16 grapes or 30 blueberries (per replicate, in duplicate) are placed in a clamshell with the stem end facing up for all fruits except for strawberry (stem end facing downwards). A fresh wound is inoculated with 20 μL 1×10^6 per mL Penicillium expansum spore suspension (apple and pear), 20 μL 1×10^6 per mL Penicillium digitatum spore suspension (orange), and 20 μL (strawberry and grape) or 10 μL (blueberry) of 1×10^6 per mL Botrytis cinerea spore suspension. The clamshells are placed inside a 117 L Rubbermaid storage box (Cat #2244) with lids closed. […] After treatment, fruits are held for an additional three days at 21° C., then evaluated for disease incidence (mm diameter of browning or water-soaked lesions) and pathogen sporulation (mm diameter) for apple, pear and orange, as well as Botrytis cinerea disease incidence (%) and severity (0 to 4) for strawberry, grape and blueberry, with results summarized in Table 30."}, "Penicillium digitatum [5]": {"test_system": "Penicillium digitatum", "assay": "in vivo sublimation bioassay on fruit, 1 mg/L (Example 31)", "experimental": "as §4, §5"}, "Penicillium expansum [6]": {"test_system": "Penicillium expansum", "assay": "in vivo sublimation bioassay on fruit, 1 mg/L (Example 31)", "settings": "1 mg/L sublimed, three day treatment plus three days at 21° C.", "experimental": "as §4, §5"}, "Botrytis cinerea [7]": {"test_system": "Botrytis cinerea", "assay": "in vivo dose by time volatile bioassay using strawberry", "settings": "0.125 mg, 3-day treatment at 21° C. plus 2 days at 21° C., vs acetone only control"}, "[8]": {"settings": "Orange, 1 mg/L sublimed, three day treatment plus three days at 21° C."}}}
{"smiles": "OB1OCc2cc(F)ccc21", "note": "[Compound A]", "values": [{"measurement": "Log CFU/mL", "setting": "Escherichia coli; E. coli from beef, 100 mg/L headspace, 2 days at 21° C.", "value": 5.09, "unit": "Log CFU/mL"}, {"measurement": "Log reduction", "setting": "Escherichia coli; E. coli from beef, 100 mg/L, relative to the control", "value": 3.17, "unit": "log"}, {"measurement": "reduction of E. coli in percent", "setting": "Escherichia coli; beef, 100 mg/L, relative to the control", "value": "> 99.9", "unit": "%"}, {"measurement": "Log CFU/mL", "setting": "Salmonella enterica", "value": 4.95, "unit": "Log CFU/mL"}, {"measurement": "Incidence (%)", "setting": "Botrytis cinerea [1]; Blueberry", "value": 5, "unit": "%"}, {"measurement": "Severity (0-4)", "setting": "Botrytis cinerea [1]; Blueberry", "value": 0.03}, {"measurement": "Incidence (%)", "setting": "Botrytis cinerea [1]; Grape", "value": 26.7, "unit": "%"}, {"measurement": "Severity (0-4)", "setting": "Botrytis cinerea [1]; Grape", "value": 0.1}, {"measurement": "Incidence (%)", "setting": "Botrytis cinerea [1]; Strawberry", "value": 18.8, "unit": "%"}, {"measurement": "Severity (0-4)", "setting": "Botrytis cinerea [1]; Strawberry", "value": 0.09}, {"measurement": "Sporulation (mm)", "setting": "Penicillium digitatum [2]", "value": 8.55, "unit": "mm"}, {"measurement": "Water soaked lesion", "setting": "Penicillium digitatum [2]", "value": 3.04, "unit": "mm"}, {"measurement": "Browning (mm)", "setting": "Penicillium expansum [3]; Apple", "value": 5.4, "unit": "mm"}, {"measurement": "Sporulation (mm)", "setting": "Penicillium expansum [3]; Apple", "value": 0, "unit": "mm"}, {"measurement": "Browning (mm)", "setting": "Penicillium expansum [3]; Pear", "value": 2.7, "unit": "mm"}, {"measurement": "Sporulation (mm)", "setting": "Penicillium expansum [3]; Pear", "value": 0, "unit": "mm"}, {"measurement": "Diameter of the rot (mm)", "setting": "Alternaria alternata; 0.4 mg/L", "value": 3.8, "unit": "mm"}, {"measurement": "Diameter of the rot (mm)", "setting": "Alternaria alternata; 2 mg/L", "value": 0.0, "unit": "mm"}, {"measurement": "in vivo antimicrobial control of B. cinerea", "setting": "Botrytis cinerea [4]; 1 mg/L, volatile fungicide on different hosts", "value": 100, "unit": "%"}, {"measurement": "Incidence (%)", "setting": "Botrytis cinerea [4]; Blueberry", "value": 0.0, "unit": "%"}, {"measurement": "Severity (0-4)", "setting": "Botrytis cinerea [4]; Blueberry", "value": 0.0}, {"measurement": "Incidence (%)", "setting": "Botrytis cinerea [4]; Grape", "value": 0.0, "unit": "%"}, {"measurement": "Severity (0-4)", "setting": "Botrytis cinerea [4]; Grape", "value": 0.0}, {"measurement": "Incidence (%)", "setting": "Botrytis cinerea [4]; Strawberry", "value": 0.0, "unit": "%"}, {"measurement": "Severity (0-4)", "setting": "Botrytis cinerea [4]; Strawberry", "value": 0.0}, {"measurement": "in vivo antimicrobial control of P. digitatum", "setting": "Penicillium digitatum [5]; 1 mg/L, volatile fungicide", "value": 100, "unit": "%"}, {"measurement": "Sporulation (mm)", "setting": "Penicillium digitatum [5]; [8]", "value": 0.0, "unit": "mm"}, {"measurement": "Water soaked lesion", "setting": "Penicillium digitatum [5]; [8]", "value": 0.0, "unit": "mm"}, {"measurement": "Browning (mm)", "setting": "Penicillium expansum [6]; Apple", "value": 0.8, "unit": "mm"}, {"measurement": "Sporulation (mm)", "setting": "Penicillium expansum [6]; Apple", "value": 0.0, "unit": "mm"}, {"measurement": "Browning (mm)", "setting": "Penicillium expansum [6]; Pear", "value": 4.7, "unit": "mm"}, {"measurement": "Sporulation (mm)", "setting": "Penicillium expansum [6]; Pear", "value": 0.0, "unit": "mm"}, {"measurement": "in vivo inhibition of Botrytis cinerea", "setting": "Botrytis cinerea [7]", "value": 100, "unit": "%"}]}
